Source: publication PMC9503459, “Antifungal Activity, Structural Stability, and Immunomodulatory Effects on Human Immune Cells of Defensin from the Lentil Lens culinaris” (Membranes, 2022)
No end group written: not given here.

Legend:
[1] = test system: clinical isolate of C. glabrata (252/2); experiment: Antifungal microdilution assay, C. glabrata; format: cell-based, Candida glabrata; conditions: 24 h; for inhibition of the growth: C. glabrata
Method: The clinical isolates of Candida albicans (v47a3), C. krusei (225/2) and C. glabrata (252/2) were collected from patients with human immunodeficiency virus (HIV) infection and provided by G.N. Gabrichevsky Research Institute for Epidemiology and Microbiology (Moscow, Russia). Strains stocks were kept at −70 ℃ in 10% nonfat milk with 10% glycerol.
Antifungal susceptibility tests were performed by the microdilution method using 96-well microplates. Yeast cells in stock were inoculated onto modified YPD (yeast extract 5 g/L, peptone 10 g/L, glucose 10 g/L) agar plates, and incubated for 24 h at 37 ℃. After replating, cells were cultured in modified YPD broth at 37 ℃ to optical density 1.0 at 540 nm. Further, yeast cells in modified YPD broth at concentration of 5 × 10^4 cells/mL were mixed with equal volumes of serial two-fold dilutions of the peptide in water which started at the highest peptide concentration of 200 µM. Final peptide concentrations in the wells were 100, 50, 25, 12.5, 6.25, 3.125, and 1.56 μM. Controls without defensin were also tested. Plates were incubated at 30 ℃ during 24 h. Yeast growth was estimated using inverted microscope as well as by measuring the optical density at 540 nm. Percentage of growth inhibition was defined as: growth inhibition (%) = ((Acontrol − Asample)/Acontrol) × 100%. All of the experiments were performed twice in triplicate. The t-test was performed to study the statistical difference (p-value) between the means of controls and samples with different peptide concentrations. The experiment with lentil Lens culinaris lipid transfer protein Lc-LTP2 was carried out for comparison.

THP-1 cells = experiment: Resazurin-based cytotoxicity assay, THP-1; format: cell-based, human; conditions: 0.2 to 50 μM, 24 h
Method: The cytotoxic properties of Lc-def and melittin as a control were investigated also by resazurin-based cell cytotoxicity assay. PBMCs and THP-1 cells were seeded in 96-well plates at 2 × 10^6 and 1 × 10^6 cells per well, respectively, in RPMI-1640 supplemented with 10% FBS, and kept in CO2-incubator. After 24 h serial two-fold dilutions of compounds in culture medium were then added to final concentrations from 0.2 to 50 μM. After 24 h of incubation with the peptides, resazurin (Sigma) was added at a final concentration of 0.7 mM, and the plates were incubated overnight (16 h). Fluorescent resorufin was registered using 535/595 filter at PlateReader AF2200 (Eppendorf, Hamburg, Germany). Untreated corresponding cells were used as negative controls. The cell viability was calculated as: cell viability (%) = (Fsample/Fcontrol) × 100%. The experiment was carried out twice in triplicate.

[2] = test system: pepsin, trypsin, α-chymotrypsin; experiment: Simulated gastrointestinal digestion in vitro; format: in vitro ADME, porcine pepsin and trypsin, bovine α-chymotrypsin
Excerpt: Digestive enzymes (porcine pepsin and trypsin, bovine α-chymotrypsin), model protein substrate bovine α-casein, and secondary anti-rabbit IgG polyclonal goat antibodies conjugated to HRP and 3,3′,5,5′-tetramethylbenzidine (TMB) substrates were purchased from Sigma-Aldrich (St. Louis, MO, USA). Synthetic lysophospholipids (lyso-palmitoyl phosphatidylcholine (LPPC), lyso-palmitoyl phosphatidylglycerol (LPPG)) were purchased from Avanti Polar Lipids (Alabaster, AL, USA).
Sensitivity of Lc-def to digestive enzymes was examined by simulation of its gastrointestinal digestion in vitro. Gastric digestion was performed for 2 h, using 50 ng of pepsin per 1 μg of preheated at 100 °C for 30 min and intact Lc-def in 0.1 M HCl, pH 2.0. For duodenal digestion, the pH of the mixture resulting from gastric digestion was adjusted to 8.0 by addition of ammonium bicarbonate. The obtained mixture was incubated for 24 h at 37 °C with 2.5 ng of trypsin and 10 ng of α-chymotrypsin per 1 μg of the defensin. The degree of proteolysis was monitored by SDS-PAGE and RP-HPLC. Gel analysis was performed using Gel Doc XR^+ imaging system (Bio-Rad, Hercules, CA, USA) and Image Lab Software v.6.1.0 (Bio-Rad, Hercules, CA, USA). Some independent experiments were performed in each case. The experiment with α-casein was carried out for comparison.

With “Lc-def: defensin from lentil Lens culinaris seeds (UniProt:B3F051), recombinant, overexpressed in Escherichia coli (KTCENLSDSFKGPCIPDGNCNKHCKEKEHLLSGRCRDDFRCWCTRNC; disulfide (positions not given here); ends not checked; also: disulfide bonds present, pairing not given here; UniProt B3F051 28-74, looked up)” the IC50 ([1]; C. glabrata clinical isolate, microdilution, modified YPD, 30 °C, OD540, twice in triplicate, read-out: concentration causing 50% growth inhibition) was 25 to 50 µM, the “inhibition of the growth” value ([1]; 50 μM peptide) was roughly 90% and the “inhibition of the growth” value ([1]; 100 μM peptide) was less than 100%. The cytotoxic activity (THP-1 cells) was “did not show any cytotoxic activity” and the “degradation after gastrointestinal digestion” value [2] was “approximately 30%”.
